Measurements reported in PubChem BioAssay (NCI).
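Cells were grown in 96-well plates and exposed to each compound for 48 hours at five concentrations; endpoints were interpolated linearly between bracketing concentrations, or set to the highest concentration if not reached. GI50: concentration for 50% inhibition of growth. Definition used: TGI = concentration required for complete inhibition of growth.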

Assays:
Assay in all cases: inhibition of tumour cell growth, NCI panel, 48 h
SR leukemia = test system: SR leukemia
CAKI-1 renal = test system: CAKI-1 renal
SK-MEL-5 melanoma = test system: SK-MEL-5 melanoma
NCI-H460 lung = test system: NCI-H460 lung
HS 578T breast = test system: HS 578T breast
MALME-3M melanoma = test system: MALME-3M melanoma
T-47D breast = test system: T-47D breast
COLO 205 colon = test system: COLO 205 colon
ACHN renal = test system: ACHN renal
HL-60(TB) leukemia = test system: HL-60(TB) leukemia
A498 renal = test system: A498 renal
RPMI-8226 leukemia = test system: RPMI-8226 leukemia
SF-539 CNS = test system: SF-539 CNS
SW-620 colon = test system: SW-620 colon
UACC-62 melanoma = test system: UACC-62 melanoma
CCRF-CEM leukemia = test system: CCRF-CEM leukemia
NCI-H522 lung = test system: NCI-H522 lung
MOLT-4 leukemia = test system: MOLT-4 leukemia
KM12 colon = test system: KM12 colon
MDA-MB-231 breast = test system: MDA-MB-231 breast
SNB-75 CNS = test system: SNB-75 CNS
HOP-92 NSCLC = test system: HOP-92 NSCLC
NCI/ADR-RES ovarian = test system: NCI/ADR-RES ovarian
SN12C renal = test system: SN12C renal
SNB-19 CNS = test system: SNB-19 CNS
NCI-H226 lung = test system: NCI-H226 lung
TK-10 renal = test system: TK-10 renal
PC-3 prostate = test system: PC-3 prostate
SK-MEL-28 melanoma = test system: SK-MEL-28 melanoma
MDA-MB-435 = test system: MDA-MB-435
SK-OV-3 ovarian = test system: SK-OV-3 ovarian
SF-268 CNS = test system: SF-268 CNS
OVCAR-5 ovarian = test system: OVCAR-5 ovarian
RXF 393 renal = test system: RXF 393 renal

For `CCCc1cn2c(/C=N/N=C(N)N)c(-c3cccc([N+](=O)[O-])c3)nc2s1`, the TGI (SR leukemia) was 3.89 µM, the TGI (CAKI-1 renal) was 3.83 µM and the TGI (SK-MEL-5 melanoma) was 3.9 µM. It also gave a TGI (NCI-H460 lung) of 5.37 µM, a TGI (HS 578T breast) of 7.51 µM and a TGI (MALME-3M melanoma) of 2.82 µM. For the same compound, the TGI (T-47D breast) was 4.99 µM, the TGI (COLO 205 colon) was 4.35 µM and the TGI (ACHN renal) was 3.38 µM. The TGI (HL-60(TB) leukemia) was 4.75 µM, the TGI (A498 renal) was 33.2 µM and the TGI (RPMI-8226 leukemia) was 4.36 µM. For the same compound, the TGI (SF-539 CNS) was 3.15 µM, the TGI (SW-620 colon) was 8.42 µM and the TGI (UACC-62 melanoma) was 3.15 µM. It also gave a TGI (CCRF-CEM leukemia) of 2.32 µM, a TGI (NCI-H522 lung) of 4.47 µM and a TGI (MOLT-4 leukemia) of 2.81 µM. It also gave a TGI (KM12 colon) of 3.57 µM, a TGI (MDA-MB-231 breast) of 3.04 µM and a TGI (SNB-75 CNS) of 3.1 µM. The TGI (HOP-92 NSCLC) was 32.4 µM, the TGI (NCI/ADR-RES ovarian) was 10.5 µM and the TGI (SN12C renal) was 2.58 µM. For the same compound, the TGI (SNB-19 CNS) was 4.86 µM, the TGI (NCI-H226 lung) was 3.28 µM and the TGI (TK-10 renal) was 0.405 µM. It also gave a TGI (PC-3 prostate) of 8.19 µM, a TGI (SK-MEL-28 melanoma) of 3.18 µM and a TGI (MDA-MB-435) of 3.46 µM. It also gave a TGI (SK-OV-3 ovarian) of 5.3 µM.
`N=C(N)c1ccc(-c2ccc(/C=C/c3ccccc3)s2)cc1` showed a GI50 (SK-MEL-5 melanoma) of 2.6 µM, a TGI (SK-MEL-5 melanoma) of 7.12 µM and a GI50 (HS 578T breast) of 2.58 µM. For the same compound, the TGI (HS 578T breast) was 7.32 µM, the GI50 (ACHN renal) was 1.67 µM and the TGI (ACHN renal) was 3.03 µM. The GI50 (SF-268 CNS) was 4.28 µM, the TGI (SF-268 CNS) was 39.7 µM and the GI50 (HL-60(TB) leukemia) was 2.17 µM. For the same compound, the TGI (HL-60(TB) leukemia) was 4.67 µM, the GI50 (A498 renal) was 11.9 µM and the TGI (A498 renal) was 34.1 µM. For the same compound, the GI50 (OVCAR-5 ovarian) was 1.47 µM, the TGI (OVCAR-5 ovarian) was 2.87 µM and the GI50 (RXF 393 renal) was 1.65 µM. It also gave a TGI (RXF 393 renal) of 3.13 µM, a GI50 (NCI-H226 lung) of 6.82 µM and a TGI (NCI-H226 lung) of 46 µM. It also gave a GI50 (SK-MEL-28 melanoma) of 1.65 µM, a TGI (SK-MEL-28 melanoma) of 3.07 µM and a GI50 (SK-OV-3 ovarian) of 2.07 µM. It also gave a TGI (SK-OV-3 ovarian) of 4.9 µM.
